Test results from ChEMBL document CHEMBL1201862, “PubChem BioAssay data set” (2004).
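96-well plates; 48 h exposure; 5 concentrations. Endpoints by linear interpolation between flanking doses. Not reached: highest tested concentration assigned. GI50 marks 50% less growth.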 Active and inactive are the calls of the source. No stated cut-off is given here; in the data, active = GI50 up to about 1.1 µM and inactive = higher.

Key:
Test in all cases: inhibition of tumour cell growth, NCI panel, 48 h
[1] = system: T47D
[2] = system: TK-10
[3] = system: DU-145
[4] = system: SF-295
[5] = system: HOP-62
[6] = system: MOLT-4
[7] = system: OVCAR-8
[8] = system: M14
[9] = system: SK-OV-3
[10] = system: RXF 393
[11] = system: SF-268
[12] = system: Malme-3M
[13] = system: U-251
[14] = system: HT-29
[15] = system: CAKI-1
[16] = system: HCT-15
[17] = system: BT-549
[18] = system: SR
[19] = system: RPMI-8226
[20] = system: SK-MEL-2

Measured: GI50

CC(C)OP(=O)(OC(C)C)C(C(C)C)N(C)/C(F)=N/C(F)(F)F (stereo not given)
inactive: [1] > 100 µM | [2] > 100 µM | [3] > 100 µM | [4] > 100 µM | [5] > 100 µM | [6] 75.7 µM | [7] > 100 µM | [8] > 100 µM | [9] > 100 µM | [10] > 100 µM | [11] > 100 µM | [12] > 100 µM | [13] > 100 µM | [14] > 100 µM | [15] > 100 µM | [17] > 100 µM
> 100 µM: [16]

CC(N)(CC(O)(C(F)(F)Cl)C(F)(F)Cl)C(=O)O (stereo not given)
> 10 µM: [16]
inactive: [1] > 10 µM | [18] > 10 µM | [2] > 10 µM | [3] > 10 µM | [4] > 10 µM | [5] > 10 µM | [6] > 10 µM | [7] > 10 µM | [8] > 10 µM | [9] > 10 µM | [11] > 10 µM | [12] > 10 µM | [13] > 10 µM | [14] > 10 µM | [15] > 10 µM | [17] > 10 µM

N#Cc1c(-c2ccc(Cl)cc2)c2c([nH]c1=O)-c1ccccc1SC2
inactive: [18] 29.2 µM | [2] 16.2 µM | [3] > 100 µM | [4] 28 µM | [5] 32.1 µM | [6] 27.4 µM | [7] 57.5 µM | [8] > 100 µM | [9] 32.7 µM | [10] 25.2 µM | [19] 16.7 µM | [11] 41.9 µM | [12] 33.1 µM | [20] 52.6 µM | [13] 25.6 µM | [14] 59.7 µM | [15] 47.2 µM | [17] > 100 µM
70.6 µM: [16]

COC(=O)c1cc(NC(=O)c2cc(NC(=O)Cc3c[nH]c4ccccc34)cn2C)cn1C
inactive: [1] > 100 µM | [2] 31.5 µM | [3] > 100 µM | [4] 36.3 µM | [5] > 100 µM | [6] 30.7 µM | [7] 39.4 µM | [8] 33 µM | [9] 40 µM | [10] 31.3 µM | [19] 20.5 µM | [11] 42.6 µM | [12] 21.1 µM | [20] 19.6 µM | [14] 22.2 µM | [15] 57.1 µM | [17] 37.3 µM
42.8 µM: [16]

C/C(=N/NC(=S)N1CCN(C(=S)N/N=C(/C)c2ccccn2)CC1)c1ccccn1
2.15 µM: [16]
inactive: [1] 3.52 µM | [2] 4.84 µM | [3] 5.86 µM | [4] 6.25 µM | [5] 10 µM | [6] 4.79 µM | [7] 4.13 µM | [8] 4.47 µM | [9] 8.3 µM | [10] 3.52 µM | [19] 12.1 µM | [11] 3.03 µM | [12] 4.6 µM | [20] > 100 µM | [13] 8.89 µM | [14] 7.33 µM | [15] 6.56 µM | [17] 15.9 µM

O=C(O)C1C(C(=O)Nc2ccc3c(c2)Cc2ccccc2-3)C2(Cl)C(Cl)=C(Cl)C1(Cl)C2(Cl)Cl (stereo not given)
inactive: [1] 32.1 µM | [2] 27.2 µM | [3] 31.1 µM | [4] 39.1 µM | [5] 31.2 µM | [6] 11.6 µM | [7] 20.3 µM | [8] 20.4 µM | [9] 45.5 µM | [10] 20.5 µM | [19] 14.6 µM | [11] 26.2 µM | [12] 20.6 µM | [20] 19.1 µM | [13] 15.2 µM | [14] 20.3 µM | [15] 41.9 µM | [17] 19.1 µM
21.5 µM: [16]

SC[C@@H]1COC[C@H](CS)S1
inactive: [1] > 100 µM | [18] > 100 µM | [2] > 100 µM | [3] > 100 µM | [4] > 100 µM | [5] > 100 µM | [6] > 100 µM | [7] > 100 µM | [8] > 100 µM | [9] > 100 µM | [11] > 100 µM | [13] > 100 µM | [14] > 100 µM | [17] > 100 µM
> 100 µM: [16]

CC(C)(C)C1CCC2c3c([nH]c4ccccc34)C3C(=O)N(c4cc(Br)cc(Br)c4)C(=O)C3C2C1 (stereo not given)
inactive: [18] 7.89 µM | [2] 19.9 µM | [3] 21.4 µM | [5] 18.7 µM | [6] 5.26 µM | [7] 16 µM | [8] 25.4 µM | [9] 61.1 µM | [19] 36.4 µM | [12] 57.9 µM | [20] 26.7 µM | [13] 13.4 µM | [14] 9.89 µM | [15] 13.7 µM | [17] 33.9 µM
25.4 µM: [16]
